Results from ChEMBL document CHEMBL1201862, “PubChem BioAssay data set” (2004).
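Test compounds were applied to cells in 96-well plates for 48 hours at 5 doses. GI50 marks 50% less growth.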 Calls of active or inactive are those of the source. Cut-off read from the data, not from the text of the source: active = GI50 up to about 1.1 µM and inactive = higher.

Experiments:
Test in all cases: growth of human tumour cells (NCI), 48 h
[1] = test system: A498
[2] = test system: DMS-273
[3] = test system: HCC 2998
[4] = test system: HOP-92
[5] = test system: K562
[6] = test system: KM12
[7] = test system: M14
[8] = test system: MOLT-4
[9] = test system: NCI-H226
[10] = test system: SF-268
[11] = test system: SK-MEL-2
[12] = test system: SN12C
[13] = test system: SNB-75
[14] = test system: U-251
[15] = test system: UACC-257
[16] = test system: UACC-62
[17] = test system: MCF7
[18] = test system: NCI/ADR-RES

Row | SMILES | GI50 [1] | GI50 [2] | GI50 [3] | GI50 [4] | GI50 [5] | GI50 [6] | GI50 [7] | GI50 [8] | GI50 [9] | GI50 [10] | GI50 [11] | GI50 [12] | GI50 [13] | GI50 [14] | GI50 [15] | GI50 [16] | GI50 [17] | GI50 [18]
1 | O=C(O/N=C1/CCCC/C1=C\c1ccccc1)c1ccccc1 | 0.178 µM (active) | 40.3 µM (inactive) | > 100 µM (inactive) | 63.5 µM (inactive) | 20.8 µM (inactive) | 45.3 µM (inactive) | > 100 µM (inactive) | 24.5 µM (inactive) | > 100 µM (inactive) | 33.3 µM (inactive) | > 100 µM (inactive) | > 100 µM (inactive) | > 100 µM (inactive) | 92.7 µM (inactive) | > 100 µM (inactive) | > 100 µM (inactive) | – | –
2 | O=C1CC2CCN(C(=O)c3ccccc3)CC2CCN1.O=C1CCC2CC(C(=O)c3ccccc3)CCC2CN1 (stereo unspecified) | – | > 100 µM (inactive) | > 100 µM (inactive) | – | > 100 µM (inactive) | > 100 µM (inactive) | > 100 µM (inactive) | > 100 µM (inactive) | > 100 µM (inactive) | > 100 µM (inactive) | > 100 µM (inactive) | > 100 µM (inactive) | > 100 µM (inactive) | > 100 µM (inactive) | > 100 µM (inactive) | 52.1 µM (inactive) | – | –
3 | C/C(=N\NS(=O)(=O)c1ccccc1)c1ccc[n+]([O-])n1 | > 100 µM (inactive) | > 100 µM (inactive) | > 100 µM (inactive) | 39 µM (inactive) | 21 µM (inactive) | > 100 µM (inactive) | 30.1 µM (inactive) | 36.4 µM (inactive) | – | > 100 µM (inactive) | – | > 100 µM (inactive) | 47.6 µM (inactive) | > 100 µM (inactive) | 58.7 µM (inactive) | > 100 µM (inactive) | – | –
4 | C=CCc1cc(OC)c(O)c(C(=O)/C=C/c2ccc(OC)c(OC)c2)c1 | 17.9 µM (inactive) | 23.4 µM (inactive) | 21.8 µM (inactive) | – | 10.7 µM (inactive) | 19.5 µM (inactive) | 17 µM (inactive) | 1.2 µM (inactive) | – | 24.4 µM (inactive) | 13.3 µM (inactive) | – | 22.5 µM (inactive) | 17.4 µM (inactive) | 19.3 µM (inactive) | 23.8 µM (inactive) | – | –
5 | CN1CC(C(=O)C2C(=O)c3ccccc3C2=O)C(=O)C(=O)C(C(=O)C2C(=O)c3ccccc3C2=O)C1 (stereo unspecified) | > 100 µM (inactive) | > 100 µM (inactive) | > 100 µM (inactive) | 85.1 µM (inactive) | > 100 µM (inactive) | > 100 µM (inactive) | > 10 µM (inactive) | > 100 µM (inactive) | – | > 100 µM (inactive) | > 100 µM (inactive) | > 100 µM (inactive) | 32.9 µM (inactive) | > 100 µM (inactive) | > 100 µM (inactive) | > 100 µM (inactive) | – | –
6 | N#Cc1nc(Nc2ccc(Cl)cc2)sc1N | 10.9 µM (inactive) | 13.2 µM (inactive) | 6.87 µM (inactive) | 20.9 µM (inactive) | 3.91 µM (inactive) | 13.8 µM (inactive) | 23.6 µM (inactive) | 1.52 µM (inactive) | 19.8 µM (inactive) | 5.47 µM (inactive) | 15.1 µM (inactive) | 4.54 µM (inactive) | 28.8 µM (inactive) | 10.2 µM (inactive) | 10.2 µM (inactive) | 10.1 µM (inactive) | – | –
7 | CCOC(=O)c1s/c(=N\Nc2nc3ccccc3cc2C2OCCO2)n(Cc2ccccc2)c1C | > 100 µM (inactive) | > 100 µM (inactive) | – | > 100 µM (inactive) | > 100 µM (inactive) | > 100 µM (inactive) | > 100 µM (inactive) | 40.2 µM (inactive) | > 100 µM (inactive) | > 100 µM (inactive) | > 100 µM (inactive) | > 100 µM (inactive) | > 100 µM (inactive) | > 100 µM (inactive) | > 100 µM (inactive) | > 100 µM (inactive) | – | –
8 | Cc1c2ccnc(C(N)=O)c2c(C)c2c1[nH]c1ccccc12 | 8.18 µM (inactive) | 2.39 µM (inactive) | 14.1 µM (inactive) | – | 11 µM (inactive) | 6.07 µM (inactive) | 6.58 µM (inactive) | 2.72 µM (inactive) | 6.65 µM (inactive) | 5.46 µM (inactive) | 13.1 µM (inactive) | 4.13 µM (inactive) | 10.6 µM (inactive) | 8.51 µM (inactive) | 10.5 µM (inactive) | 4.92 µM (inactive) | 2.39 µM (inactive) | 5.65 µM (inactive)
9 | CCOC(=O)/C=C(/CN1C(=O)c2ccccc2C1=O)c1ccccc1 | > 100 µM (inactive) | > 100 µM (inactive) | > 100 µM (inactive) | > 100 µM (inactive) | > 100 µM (inactive) | > 100 µM (inactive) | > 100 µM (inactive) | > 100 µM (inactive) | > 100 µM (inactive) | > 100 µM (inactive) | > 100 µM (inactive) | > 100 µM (inactive) | > 100 µM (inactive) | > 100 µM (inactive) | > 100 µM (inactive) | > 100 µM (inactive) | – | –
